The NIST ThermoML archive (doi:10.1021/je400781b)
± gives the expanded uncertainty stated by the source.

Assays:
[1] = 101 kPa, Liquid; for speed of sound: Frequency=2.75 MHz, Pulse-echo method; for mass density: Vibrating tube method
[2] = refractive index (Na D-line) (dimensionless); settings: 298.15 K; 101.33 kPa; Liquid; Standard Abbe refractometry
[3] = xn = mol fraction of the nth substance listed; settings: 101 kPa, Liquid, x2 = 0; for speed of sound: Frequency=2.75 MHz, Pulse-echo method; for mass density: Vibrating tube method

SMILES | speed of sound ([1]; 293.15 K) [m/s] | mass density ([1]; 293.15 K) [kg/m3] | speed of sound ([1]; 298.15 K) [m/s] | mass density ([1]; 298.15 K) [kg/m3] | speed of sound ([1]; 303.15 K) [m/s] | mass density ([1]; 303.15 K) [kg/m3] | speed of sound ([1]; 308.15 K) [m/s] | mass density ([1]; 308.15 K) [kg/m3] | speed of sound ([1]; 313.15 K) [m/s] | mass density ([1]; 313.15 K) [kg/m3] | refractive index [2] | speed of sound ([3]; 293.15 K) [m/s] | mass density ([3]; 293.15 K) [kg/m3] | speed of sound ([3]; 298.15 K) [m/s] | mass density ([3]; 298.15 K) [kg/m3] | speed of sound ([3]; 303.15 K) [m/s] | mass density ([3]; 303.15 K) [kg/m3] | speed of sound ([3]; 308.15 K) [m/s] | mass density ([3]; 308.15 K) [kg/m3] | other results
CCCC[n+]1ccn(C)c1.O=S(=O)([N-]S(=O)(=O)C(F)(F)F)C(F)(F)F | 1237.9 ± 1.5 | 1439.23 ± 0.61 | 1226.7 ± 1.5 | 1434.44 ± 0.61 | 1215.6 ± 1.5 | 1429.65 ± 0.6 | 1204.6 ± 1.5 | 1424.88 ± 0.6 | 1193.7 ± 1.5 | 1420.12 ± 0.59 | 1.4265 ± 0.0008 |  |  |  |  |  |  |  |  | 
CC#N [acetonitrile] | 1298.2 ± 1.2 | 782 ± 0.15 | 1277.7 ± 1.2 | 776.6 ± 0.15 | 1257.2 ± 1.2 | 771.18 ± 0.15 | 1236.9 ± 1.2 | 765.72 ± 0.15 | 1216.6 ± 1.2 | 760.24 ± 0.16 | 1.3416 ± 0.0008 |  |  |  |  |  |  |  |  | 
CC#N [acetonitrile] + CCCC[n+]1ccn(C)c1.O=S(=O)([N-]S(=O)(=O)C(F)(F)F)C(F)(F)F |  |  |  |  |  |  |  |  |  |  |  | 1298.2 ± 1.2 | 782 ± 0.15 | 1277.7 ± 1.2 | 776.6 ± 0.15 | 1257.2 ± 1.2 | 771.18 ± 0.15 | 1236.9 ± 1.2 | 765.72 ± 0.15 | speed of sound ([3]; 313.15 K): 1216.6 ± 1.2 m/s; mass density ([3]; 313.15 K): 760.24 ± 0.16 kg/m3
C1CCOC1 [tetrahydrofuran] | 1301.9 ± 1.2 | 887.52 ± 0.12 | 1277.5 ± 1.2 | 882.06 ± 0.13 | 1253.2 ± 1.2 | 876.57 ± 0.13 | 1229 ± 1.2 | 871.04 ± 0.13 |  |  | 1.4052 ± 0.0008 |  |  |  |  |  |  |  |  | 
C1CCOC1 [tetrahydrofuran] + CCCC[n+]1ccn(C)c1.O=S(=O)([N-]S(=O)(=O)C(F)(F)F)C(F)(F)F |  |  |  |  |  |  |  |  |  |  |  | 1301.9 ± 1.2 | 887.52 ± 0.12 | 1277.5 ± 1.2 | 882.06 ± 0.13 | 1253.2 ± 1.2 | 876.57 ± 0.13 | 1229 ± 1.2 | 871.04 ± 0.13 | 
